# Measured values from paper PMC10960464, “In vivo antimalarial effect of 1-hydroxy-5,6,7-trimethoxyxanthone isolated from Mammea siamensis T. Anders. flowers: pharmacokinetic and acute toxicity studies” (BMC Complementary Medicine and Therapies, 2024).
# Several values for one entry are separate records, joined by “and”; a condition that tells them apart may be missing. Equal values may be shown once. Entries after “also recorded” stand apart in the source; their conditions may differ. Read-outs that look alike come from different tables or passages of the source.
# Legend:
# [1] = system: Plasmodium berghei ANKA strain; assay: In vivo 4-day suppressive test of P. berghei in ICR mice; parameters: species or system Plasmodium berghei (in ICR mice); conditions: mean ± SEM, n = 5
# Procedure: Wild-type P. berghei ANKA strain was obtained from Thomas F. McCutchan (BEI Resources, NIAID, NIH). P. berghei-infected red blood cells were administered intraperitoneally to donor mice. When parasitemia levels reached 20–30%, blood was collected from the heart using a cardiac puncture procedure and placed in a vacutainer heparinized tube for injection into experimental animals.
# A 4-day suppressive test was used to measure the schizonticidal activity of HTX in P. berghei-infected ICR mice. This test was performed according to a previous method, with some modifications. All mice were intraperitoneally injected with 1 × 10^7P. berghei ANKA-parasitized erythrocytes. Treatment was initiated four hours after the mice were infected with Plasmodium parasite on the first day (D0). […] For each experimental group, animals received daily intraperitoneal doses of 1, 3, or 10 mg/kg body weight of HTX. Mice received each substance daily for 4 days (D0-D3). On the fifth day (D4), parasitemia was determined using Giemsa-stained thin blood smears prepared from the tails of each mouse. Mice were euthanized at the end of the experiment by intraperitoneal injection of pentobarbital (200 mg/kg body weight).
# Finally, the percentage suppression of parasite growth was calculated using the following equation: [drawing 1]
# [2] = cited from earlier work
# non-infected ICR mice = assay: Acute toxicity test, single intraperitoneal dose, 14-day observation, liver and kidney biochemical parameters; type: in vivo
# Procedure: (§1) Acute HTX toxicity was determined in non-infected ICR mice aged 6–8 weeks and weighing 25–35 g using the Organization for Economic Cooperation and Development standard criteria. Fifteen mice were randomly divided into three groups (n = 5): untreated, negative control, and HTX-treated. All mice fasted for three hours prior to the experiment, and only drinking water was available. HTX was dissolved in 2% DMSO in NSS at 50 mg/kg body weight. In the treatment group, the first mouse was intraperitoneally given a single dose of 50 mg/kg body weight HTX, whereas in the negative control group, the first mouse was intraperitoneally given 200 µL of 2% DMSO in NSS. […] All mice were anaesthetized using pentobarbital (60 mg/kg body weight) by intraperitoneal injection. Blood samples were collected via cardiac puncture into heparinized tubes for biochemical analyses. The liver and kidney tissues were collected for histological examination. The mice were subsequently euthanized with an intraperitoneal injection of pentobarbital (200 mg/kg body weight).
# [3] = system: liver and kidney tissues of ICR mice; assay: Histopathological examination of liver and kidney tissues (H&E) in the acute toxicity test; type: in vivo; conditions: 50 mg/kg single intraperitoneal dose
# Procedure: as §1
# […]. In brief, all tissues were fixed in 10% buffered formalin, dehydrated using a gradient series of ethanol solutions, cleaned with xylene, and deposited in a paraffin mold. The paraffin blocks were then sectioned to a thickness of 5 μm using a rotary microtome, transferred to glass slides, and stained with hematoxylin and eosin (H&E) solution. […]
# [4] = In vivo pharmacokinetic study after intraperitoneal administration, plasma LC-MS/MS; conditions: 5 mg/kg intraperitoneal, ICR mice, n = 5
# Procedure: A pharmacokinetic study was conducted in non-infected ICR mice aged 6–8 weeks and weighing 25–35 g. Male ICR mice were randomly divided into two groups, each consisting of five mice. The first group is a negative control group and was injected with 150 µL of 2% DMSO in NSS, whereas the second group is a test group that was administered 5 mg/kg body weight of HTX compound intraperitoneally. Blood ([…]) was taken from the tail vein prior to administration of test compounds (0 h) and after at, 0.5, 1, 2, 3, 5, 8, 24, 48, and 72 h. Blood samples were collected in microtubes containing ethylenediaminetetraacetic acid (EDTA) and kept on ice until they were centrifuged at 3,000 × g for 10 min at 4 °C to allow the collection of plasma, which was stored at − 80 °C.
# LC-MS/MS (Agilent 1290 infinity LC and Agilent 6490 triple quadrupole mass spectrometer) with an electrospray ionization (ESI, Agilent Technologies, USA) source was used to detect HTX in the plasma. Using a VertiSepTM USP C18 column (4.6 mm × 150 mm, particle size = 5 μm; Vertical Chromatography Co., ltd., Nonthaburi, Thailand), the separation was achieved. Acetonitrile:1 mM formic acid (7:3) was used as the mobile phase and was maintained at a constant flow rate of 0.5 mL/min. The injection volume was 1 µL, and column temperature was maintained at 30 °C. The following operating conditions for the MS were optimized: the source temperature was kept at 200 °C, the ion spray voltage for the positive mode was set at 3 KV, and the collision energy for HTX was set at 43 V. Nitrogen was used as the collision gas. The nebulizer and sheath gas flow rates were set to 14 and 11 L/min, respectively. The MassHunter qualitative analysis software was used to acquire the data (Agilent Technologies, Inc. Headquarters, CA, USA). HTX was quantified using the transitions for HTX at m/z 303→199 in the multiple reaction monitoring (MRM) mode.
# By dissolving precisely weighed HTX and reference compounds in acetonitrile, stock HTX solutions were prepared. By diluting the stock solutions using a mixture of acetonitrile and water (2:8, v/v), a series of working solutions with concentrations between 7.81 and 1000 ng/mL were prepared. All solutions were stored at 4 °C. By spiking the blank plasma (50 µL) with 25 µL of standard working solutions, HTX calibration standards (0.78, 1.56, 3.13, 6.25, 12.5, 25.0, 50, 125, and 250 ng/mL) were prepared. The extraction solvent ethyl acetate (0.5 mL) was added to 75 µL of HTX-spiked plasma. The sample was vortexed for 1 min, followed by ultrasonic vibration for 15 min. Then, centrifugation for 10 min at 15,000 × g was done. The upper organic layer was transferred to a new microtube and dried via evaporation. The dried extract was reconstituted in 150 µL of 50% (v/v) acetonitrile in water. HTX recovery experiments were performed to confirm extraction efficacy. The effectiveness of liquid-liquid extraction was then determined by comparing the peak regions of the extracted HTX-spiked plasma with those of HTX spiked with blank plasma extract.
# The plasma concentration-time profiles of HTX were determined by non-compartmental analysis with PKSolver 2.0 software. […] Additionally, the apparent volume of the central or plasma compartment, apparent volume of the peripheral compartment, transfer rate constant from the central compartment to the peripheral compartment, and transfer rate constant from the peripheral to central compartment were calculated using the two-compartment model.
# [5] = system: Plasmodium falciparum K1 strain; conditions: P. falciparum K1 strain (chloroquine-resistant), in vitro; read-out: IC50, antiplasmodial activity; cited from earlier work
# [6] = system: P. falciparum chloroquine-resistant (FCR3) strain; conditions: cited from earlier work
# [7] = 3 mg/kg intraperitoneal daily D0-D3, read on D4, P. berghei-infected ICR mice
# [8] = 1 mg/kg intraperitoneal daily D0-D3, read on D4, P. berghei-infected ICR mice
# [9] = 10 mg/kg intraperitoneal daily D0-D3, read on D4, P. berghei-infected ICR mice
smiles,measurement,setting,value
"C[C@H]1[C@H](OC(=O)CCC(=O)O)O[C@@H]2O[C@@]3(C)CC[C@H]4[C@H](C)CC[C@@H]1[C@@]24OO3 [Artesunate, reference compound]",% parasitemia,[1]; [7],3.84 ± 0.54%
same,elimination half-life,[2]; in vivo,0.8 to 1.2 h
"CCN(CC)CCCC(C)Nc1ccnc2cc(Cl)ccc12 (stereo not drawn) [Chloroquine, reference compound]",% parasitemia,[1]; [7],3.42 ± 0.35%
same,% suppression,[1]; [7],"92.07 ± 4.21 ^c, d, e %"
same,% suppression,"[1]; 3 mg/kg intraperitoneal daily D0-D3, read on D4, P. berghei-infected ICR mice, listed as chloroquine",92.07%
"COc1cc2c(=O)c3c(O)cccc3oc2c(OC)c1OC [HTX, 1-hydroxy-5,6,7-trimethoxyxanthone]",% parasitemia,[1]; [8],21.91 ± 2.25%
same,% suppression,[1]; [8],"34.56% and 34.56 ± 4.91 ^a, b, d, e %"
same,% parasitemia,[1]; [7],17.79 ± 2.31%
same,% suppression,[1]; [7],"46.88% and 46.88 ± 3.96 ^a, b, c, e %"
same,% parasitemia,[1]; [9],8.62 ± 1.21%
same,% suppression,[1]; [9],"74.26% and 74.26 ± 3.32 ^a, b, c, d %"
same,mortality,"non-infected ICR mice; 50 mg/kg single intraperitoneal dose, 24 h and following 14 days",No mortality; also recorded: all treated mice were alive; also recorded: did not cause mortality; also recorded: no behavioral changes or mortality
same,effect on biochemical parameters of the liver and kidney functions,"non-infected ICR mice; 50 mg/kg single intraperitoneal dose, versus untreated and negative controls",no significant alterations; also recorded: did not affect the liver and kidney functions
same,median lethal dose (LD50),"non-infected ICR mice; intraperitoneal, single dose, 14 days",greater than 50 mg/kg body weight
same,kidney histology (H&E),[3],no histological changes; also recorded: normal; also recorded: did not present with lesions
same,liver histology (H&E),[3],no histological changes; also recorded: normal hepatocyte histology
same,CL/F,[4]; plasma,0.020 ± 0.002 (mg/kg)/(ng/mL)/h
same,MRT0−∞,[4]; plasma,14.79 h and 14.795 ± 0.515 h
same,Vz/F,[4]; plasma,0.405 ± 0.014 (mg/kg)/(ng/mL)
same,t1/2 (elimination half-life),[4]; plasma,13.881 ± 1.231 h
same,"K21 (rate constant, peripheral to central compartment)",[4]; two-compartment model,0.156 ± 0.002 h⁻¹
same,"V1 (apparent volume, central or plasma compartment)",[4]; two-compartment model,1.633 ± 0.003 (mg/kg)/(ng/mL)
same,"V2 (apparent volume, peripheral compartment)",[4]; two-compartment model,19.808 ± 2.031 (mg/kg)/(ng/mL)
same,MRT inf,"[4]; male, ICR, mouse, plasma, ip, 5 mg/kg, plasma, read-out: MRT0−∞",14.8 h
same,half-life,"[4]; male, ICR, mouse, plasma, ip, 5 mg/kg, plasma, read-out: t1/2 (elimination half-life) (converted)",13.9 h
same,Cmax,"[4]; male, mouse, ip, plasma",94 ± 3.21 ng/mL
same,Tmax,"[4]; male, mouse, ip, plasma",0.5 ± 0.021 h
same,AUC(0-inf),"[4]; male, mouse, ip, plasma, non-compartmental",247 ± 5.33 ng·h/mL
same,AUC(0-t),"[4]; male, mouse, ip, plasma, non-compartmental, read-out: AUC0 − 48 h",226 ± 4.74 ng·h/mL
same,IC50,[5],9.57 µM
CC(C)(N)CNC(=O)C[C@H]1CC[C@]2(CC1)OO[C@]1(O2)C2CC3CC(C2)CC1C3 [arterolane],elimination half-life,[2]; in vivo,2 to 4 h
C[C@H]1[C@@H](O)O[C@@H]2O[C@@]3(C)CC[C@H]4[C@H](C)CC[C@@H]1[C@@]24OO3 [dihydroartemisinin],elimination half-life,[2],0.9 to 2 h
COc1c(O)cc2oc3cc(O)c(CC=C(C)C)c(O)c3c(=O)c2c1CC=C(C)C [Α-Mangostin],IC50,[6],0.2 µM
